This is an account of results in patent US20040242565A1, “Medicinal composition for prevention of or treatment for cerebrovascular disorder and cardiopathy” (priority 2001, published 2004).

Assay type in all cases: in vivo
Assay [1] deals with Dog Delayed Cerebral Vasospasm Model. The assay is described as follows: Effect on dog delayed cerebral vasospasm model (basilar artery diameter by angiography). Particulars: seventh day, separate administration. How it is done:
An adult mongrel dog was anesthetized with pentobarbital and 5 ml of autologous blood was injected into cisterna magna (on the first day). On the third day, 5 ml of autologous blood was injected into cisterna magna under thiamyral anesthesia. Before the injection of autologous blood on the first day and on the seventh day, angiographin was injected into vertebral artery, followed by photographing blood vessel of basilar artery. […] As a control, physiological saline was administered into vein over 30 minutes continuously. After the administration of each drug, the blood vessel was photographed to measure the diameter of basilar artery.

Assay [2] relates to Vasopressin Induced Rat Angina Pectoris Model. Particulars: half an hour before vasopressin 0.5 U/kg i.v., separate administration. As for the experimental part: Half an hour later, vasopressin (0.5 U/kg) was intravenously administered. The ST segment depression was used as an index showing the degree of a myocardial ischemia. […] ST segment in an electrocardiogram was measured for comparison with a ST segment before the vasopressin administration. […] In addition, occurrence of a myocardial ischemia was observed.

The test system of assay [3] is Rat Cerebral Infarction Model. The assay is described as follows: Inhibitory effect of cerebral infarction in rat cerebral infarction model (brain microthromboembolism). Particulars: 10 mg/kg intraperitoneally once a day until the fourth day, separate administration. How it is done:
A rat brain microthromboembolism model described in Stroke, 31, 2245-2255 (2000) was used as a cerebral infarction model. […] After the model was prepared, each drug was administered once a day until the fourth day. On the fifth day, the brain was extracted and the size of a cerebral infarction was histopathologically measured.

Where two headings read alike, the source gives them in different places.

For `COCCOC(=O)C1=C(C)NC(C)=C(C(=O)OC(C)C)C1c1cccc([N+](=O)[O-])c1` (centres unmarked) [Nimodipine, nimodipine], the “Basilar artery diameter (diameter before blood injection: 100%)” value is given as 55.7% in assay [1] (0.1 mg/kg into vein over 30 minutes) and 58.0% in assay [1] (1 mg/kg into vein over 30 minutes).

As to `CC(C)NCC(O)COc1cccc2ccccc12` (centres unmarked) [propranolol], in assay [2] (propranolol 100 mg/kg orally), the “improvement of ST segment depression (index of myocardial ischemia)” value was “not improved”.

On to `O=C([O-])/C=C/c1ccc(Cn2ccnc2)cc1.[Na+]` [sodium ozagrel], for which the “inhibition of cerebral infarction (size measured histopathologically, fifth day)” value in assay [3] was “not inhibited”.

With isosorbide nitrate, the “improvement of ST segment depression (index of myocardial ischemia)” value in assay [2] (isosorbide nitrate 30 mg/kg orally) is given as “not improved”.
